Experimental data from patent US12077503B2, “Substituted cyclic amides and their use as herbicides” (FMC CORPORATION, priority 2015, dated 2024).
Where two headings read alike, the source gives them in different places.

Assays:
Type in all cases: in vivo
Kochia (Kochia scoparia) [1] = assay: Test A preemergence; conditions: Bassia scoparia, pre-emergence, 240 h; for pest or weed control at 500 g/ha: 500 g ai/ha; for pest or weed control at 125 g/ha: 125 g ai/ha
Method in brief: (§1)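 Greenhouse, ~10 d after spray; visual injury vs untreated controls, 0 = no effect, 100 = complete control. Preemergence: directed soil spray over planted seeds. Postemergence: plants 2–10 cm, 1–2 leaf stage. Loam/sand blend. Compound in non-phytotoxic solvent with surfactant.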

[2] = tested on: barnyardgrass (Echinochloa crus-galli); assay: Test A preemergence; conditions: Echinochloa crus-galli, pre-emergence, 240 h; for pest or weed control at 500 g/ha: 500 g ai/ha; for pest or weed control at 125 g/ha: 125 g ai/ha
Method in brief: as §1

[3] = tested on: giant foxtail (Setaria faberii); assay: Test A preemergence; conditions: Setaria faberi, pre-emergence, 240 h; for pest or weed control at 500 g/ha: 500 g ai/ha; for pest or weed control at 125 g/ha: 125 g ai/ha
Method in brief: as §1

[4] = tested on: pigweed (Amaranthus retroflexus); assay: Test A preemergence; conditions: Amaranthus retroflexus, pre-emergence, 240 h; for pest or weed control at 500 g/ha: 500 g ai/ha; for pest or weed control at 125 g/ha: 125 g ai/ha
[5] = tested on: ragweed (common ragweed, Ambrosia elatior); assay: Test A preemergence; conditions: Ambrosia artemisiifolia, pre-emergence, 240 h; for pest or weed control at 500 g/ha: 500 g ai/ha; for pest or weed control at 125 g/ha: 125 g ai/ha
Method in brief: as §1

[6] = tested on: ryegrass, Italian (Italian ryegrass, Lolium multiflorum); assay: Test A preemergence; conditions: Lolium multiflorum, pre-emergence, 240 h, 125 g ai/ha, read-out: Plant response rating, Ryegrass, Italian
Method in brief: as §1

[7] = tested on: Galium (catchweed bedstraw, Galium aparine); assay: Test A postemergence; conditions: Galium, post-emergence, 240 h; for pest or weed control at 125 g/ha: 125 g ai/ha
Method in brief: as §1

Kochia (Kochia scoparia) [8] = assay: Test A postemergence; conditions: Bassia scoparia, post-emergence, 240 h, Postemergence
Method in brief: as §1

[9] = tested on: barnyardgrass (Echinochloa crus-galli); assay: Test A postemergence; conditions: Echinochloa crus-galli, post-emergence, 240 h; for pest or weed control at 125 g/ha: 125 g ai/ha
Method in brief: as §1

corn (Zea mays) = assay: Test A postemergence; conditions: Zea mays, post-emergence, 240 h
Method in brief: as §1

[10] = tested on: giant foxtail (Setaria faberii); assay: Test A postemergence; conditions: Setaria faberi, post-emergence, 240 h; for pest or weed control at 125 g/ha: 125 g ai/ha
Method in brief: as §1

[11] = tested on: pigweed (Amaranthus retroflexus); assay: Test A postemergence; conditions: Amaranthus retroflexus, post-emergence, 240 h; for pest or weed control at 125 g/ha: 125 g ai/ha
Method in brief: as §1

[12] = tested on: ragweed (common ragweed, Ambrosia elatior); assay: Test A postemergence; conditions: Ambrosia artemisiifolia, post-emergence, 240 h; for pest or weed control at 125 g/ha: 125 g ai/ha
Method in brief: as §1

[13] = tested on: wheat (Triticum aestivum); assay: Test A postemergence; conditions: Triticum aestivum, post-emergence, 240 h; for plant injury at 125 g/ha: 125 g ai/ha
Method in brief: as §1

[14] = tested on: blackgrass (Alopecurus myosuroides); assay: Test A postemergence; conditions: Alopecurus myosuroides, post-emergence, 240 h, 125 g ai/ha, postemergence; visual injury after approximately 10 d; 0 to 100 scale (0 no effect, 100 complete control); read-out: Plant response rating, Blackgrass
Method in brief: as §1

O=C1NC[C@H](c2ccc(OC(F)F)cc2)[C@H]1C(=O)Nc1ccc(F)cc1F [Compound 1325]
80%: pest or weed control at 125 g/ha (Kochia (Kochia scoparia) [1]; Preemergence, 0 to 100 scale (0 no effect, 100 complete control), read-out: Plant response rating, Kochia) | pest or weed control at 125 g/ha ([7]; Postemergence, visual rating about 10 d after treatment, read-out: Galium plant response rating (0 to 100 scale)) | pest or weed control at 500 g/ha (Kochia (Kochia scoparia) [8]; 500 g ai/ha, visual injury, 0 to 100 scale (0 no effect, 100 complete control), approx. 10 d, read-out: Plant response rating, Kochia) | pest or weed control at 125 g/ha ([10]; Postemergence, visual rating about 10 d after treatment, read-out: Foxtail, Giant plant response rating (0 to 100 scale))
0%: pest or weed control at 125 g/ha ([6]; Preemergence, 0 to 100 scale (0 no effect, 100 complete control)) | plant injury at 125 g/ha (corn (Zea mays); 125 g ai/ha, Postemergence, visual rating about 10 d after treatment, read-out: Corn plant response rating (0 to 100 scale)) | pest or weed control at 125 g/ha ([12]; Postemergence, visual rating about 10 d after treatment, read-out: Ragweed plant response rating (0 to 100 scale)) | pest or weed control at 500 g/ha ([12]; Postemergence, 500 g ai/ha, visual injury, 0 to 100 scale (0 no effect, 100 complete control), approx. 10 d, read-out: Plant response rating, Ragweed) | plant injury at 125 g/ha ([13]; Postemergence, visual rating about 10 d after treatment, read-out: Wheat plant response rating (0 to 100 scale)) | plant injury at 500 g/ha ([13]; Postemergence, 500 g ai/ha, visual injury, 0 to 100 scale (0 no effect, 100 complete control), approx. 10 d, read-out: Plant response rating, Wheat)
50%: Corn plant response rating (crop injury, 0 = no effect, 100 = complete kill) at 500 g/ha (corn (Zea mays); Postemergence, 500 g ai/ha, visual injury, 0 to 100 scale (0 no effect, 100 complete control), approx. 10 d)
70%: pest or weed control at 500 g/ha ([5]; preemergence, 0 to 100 scale where 0 is no effect and 100 is complete control, read-out: Ragweed plant response rating) | pest or weed control at 125 g/ha (Kochia (Kochia scoparia) [8]; 125 g ai/ha, visual rating about 10 d after treatment, read-out: Kochia plant response rating (0 to 100 scale)) | pest or weed control at 125 g/ha ([11]; Postemergence, visual rating about 10 d after treatment, read-out: Pigweed plant response rating (0 to 100 scale))
10%: pest or weed control at 125 g/ha ([5]; Preemergence, 0 to 100 scale (0 no effect, 100 complete control), read-out: Plant response rating, Ragweed)
60%: pest or weed control at 125 g/ha ([4]; Preemergence, 0 to 100 scale (0 no effect, 100 complete control), read-out: Plant response rating, Pigweed)
90%: pest or weed control at 500 g/ha (Kochia (Kochia scoparia) [1]; preemergence, 0 to 100 scale where 0 is no effect and 100 is complete control, read-out: Kochia plant response rating) | pest or weed control at 500 g/ha ([2]; preemergence, 0 to 100 scale where 0 is no effect and 100 is complete control, read-out: Barnyardgrass plant response rating) | pest or weed control at 125 g/ha ([2]; Preemergence, 0 to 100 scale (0 no effect, 100 complete control), read-out: Plant response rating, Barnyardgrass) | pest or weed control at 500 g/ha ([3]; preemergence, 0 to 100 scale where 0 is no effect and 100 is complete control, read-out: Foxtail, Giant plant response rating) | pest or weed control at 125 g/ha ([3]; Preemergence, 0 to 100 scale (0 no effect, 100 complete control), read-out: Plant response rating, Foxtail, Giant) | pest or weed control at 500 g/ha ([4]; preemergence, 0 to 100 scale where 0 is no effect and 100 is complete control, read-out: Pigweed plant response rating) | pest or weed control at 500 g/ha ([7]; Postemergence, 500 g ai/ha, visual injury, 0 to 100 scale (0 no effect, 100 complete control), approx. 10 d, read-out: Plant response rating, Galium) | pest or weed control at 125 g/ha ([9]; Postemergence, visual rating about 10 d after treatment, read-out: Barnyardgrass plant response rating (0 to 100 scale, 0 no effect, 100 complete control)) | pest or weed control at 500 g/ha ([9]; Postemergence, 500 g ai/ha, visual injury, 0 to 100 scale (0 no effect, 100 complete control), approx. 10 d, read-out: Plant response rating, Barnyardgrass) | pest or weed control at 500 g/ha ([10]; Postemergence, 500 g ai/ha, visual injury, 0 to 100 scale (0 no effect, 100 complete control), approx. 10 d, read-out: Plant response rating, Foxtail, Giant) | pest or weed control at 500 g/ha ([11]; Postemergence, 500 g ai/ha, visual injury, 0 to 100 scale (0 no effect, 100 complete control), approx. 10 d, read-out: Plant response rating, Pigweed)

CN1C[C@H](c2nccs2)[C@@H](C(=O)Nc2ccccc2F)C1=O [Compound 773]
0%: pest or weed control at 125 g/ha (Kochia (Kochia scoparia) [1]; preemergence, visual rating after approx. 10 d, 0 to 100 scale where 0 is no effect and 100 is complete control, read-out: Plant response rating, Kochia) | pest or weed control at 500 g/ha (Kochia (Kochia scoparia) [1]; preemergence, 0 to 100 scale, 0 = no effect, 100 = complete control, read-out: Plant response rating, Kochia) | pest or weed control at 125 g/ha ([2]; preemergence, visual rating after approx. 10 d, 0 to 100 scale where 0 is no effect and 100 is complete control, read-out: Plant response rating, Barnyardgrass) | pest or weed control at 500 g/ha ([2]; preemergence, 0 to 100 scale, 0 = no effect, 100 = complete control, read-out: Plant response rating, Barnyardgrass) | pest or weed control at 125 g/ha ([3]; preemergence, visual rating after approx. 10 d, 0 to 100 scale where 0 is no effect and 100 is complete control, read-out: Plant response rating, Foxtail, Giant) | pest or weed control at 500 g/ha ([3]; preemergence, 0 to 100 scale, 0 = no effect, 100 = complete control, read-out: Plant response rating, Foxtail, Giant) | pest or weed control at 125 g/ha ([4]; preemergence, visual rating after approx. 10 d, 0 to 100 scale where 0 is no effect and 100 is complete control, read-out: Plant response rating, Pigweed) | pest or weed control at 500 g/ha ([4]; preemergence, 0 to 100 scale, 0 = no effect, 100 = complete control, read-out: Plant response rating, Pigweed) | pest or weed control at 125 g/ha ([5]; preemergence, visual rating after approx. 10 d, 0 to 100 scale where 0 is no effect and 100 is complete control, read-out: Plant response rating, Ragweed) | pest or weed control at 500 g/ha ([5]; preemergence, 0 to 100 scale, 0 = no effect, 100 = complete control, read-out: Plant response rating, Ragweed) | pest or weed control at 125 g/ha ([6]; preemergence, visual rating after approx. 10 d, 0 to 100 scale where 0 is no effect and 100 is complete control) | pest or weed control at 125 g/ha ([7]; postemergence, visual injury after approximately 10 d, 0 to 100 scale (0 no effect, 100 complete control), read-out: Plant response rating, Galium) | pest or weed control at 125 g/ha ([9]; postemergence, visual injury after approximately 10 d, 0 to 100 scale (0 no effect, 100 complete control), read-out: Plant response rating, Barnyardgrass) | pest or weed control at 125 g/ha [14] | Corn plant response rating (crop injury, 0 = no effect, 100 = complete kill) at 125 g/ha (corn (Zea mays); 125 g ai/ha, postemergence, visual injury after approximately 10 d, 0 to 100 scale (0 no effect, 100 complete control)) | pest or weed control at 125 g/ha ([10]; postemergence, visual injury after approximately 10 d, 0 to 100 scale (0 no effect, 100 complete control), read-out: Plant response rating, Foxtail, Giant) | pest or weed control at 125 g/ha ([11]; postemergence, visual injury after approximately 10 d, 0 to 100 scale (0 no effect, 100 complete control), read-out: Plant response rating, Pigweed) | pest or weed control at 125 g/ha ([12]; postemergence, visual injury after approximately 10 d, 0 to 100 scale (0 no effect, 100 complete control), read-out: Plant response rating, Ragweed) | plant injury at 125 g/ha ([13]; postemergence, visual injury after approximately 10 d, 0 to 100 scale (0 no effect, 100 complete control), read-out: Plant response rating, Wheat)
